In ChEMBL document CHEMBL5620355, “Discovery of intracellular self-assembly protein degraders driven by tumor-specific activatable bioorthogonal reaction” (Eur J Med Chem, 2023):
Calls of active or inactive are those of the source. The rule behind the calls is not given here.

Assays:
[1] = biological target: T1, Ephrin type-B receptor 4 (Homo sapiens) (UniProt P54760); assay: Induction of EphB4 degradation in human U87 cells upto 10 uM incubated for 48 hrs by Western blot analysis; format: cell-based
T1 sequence (whole entry): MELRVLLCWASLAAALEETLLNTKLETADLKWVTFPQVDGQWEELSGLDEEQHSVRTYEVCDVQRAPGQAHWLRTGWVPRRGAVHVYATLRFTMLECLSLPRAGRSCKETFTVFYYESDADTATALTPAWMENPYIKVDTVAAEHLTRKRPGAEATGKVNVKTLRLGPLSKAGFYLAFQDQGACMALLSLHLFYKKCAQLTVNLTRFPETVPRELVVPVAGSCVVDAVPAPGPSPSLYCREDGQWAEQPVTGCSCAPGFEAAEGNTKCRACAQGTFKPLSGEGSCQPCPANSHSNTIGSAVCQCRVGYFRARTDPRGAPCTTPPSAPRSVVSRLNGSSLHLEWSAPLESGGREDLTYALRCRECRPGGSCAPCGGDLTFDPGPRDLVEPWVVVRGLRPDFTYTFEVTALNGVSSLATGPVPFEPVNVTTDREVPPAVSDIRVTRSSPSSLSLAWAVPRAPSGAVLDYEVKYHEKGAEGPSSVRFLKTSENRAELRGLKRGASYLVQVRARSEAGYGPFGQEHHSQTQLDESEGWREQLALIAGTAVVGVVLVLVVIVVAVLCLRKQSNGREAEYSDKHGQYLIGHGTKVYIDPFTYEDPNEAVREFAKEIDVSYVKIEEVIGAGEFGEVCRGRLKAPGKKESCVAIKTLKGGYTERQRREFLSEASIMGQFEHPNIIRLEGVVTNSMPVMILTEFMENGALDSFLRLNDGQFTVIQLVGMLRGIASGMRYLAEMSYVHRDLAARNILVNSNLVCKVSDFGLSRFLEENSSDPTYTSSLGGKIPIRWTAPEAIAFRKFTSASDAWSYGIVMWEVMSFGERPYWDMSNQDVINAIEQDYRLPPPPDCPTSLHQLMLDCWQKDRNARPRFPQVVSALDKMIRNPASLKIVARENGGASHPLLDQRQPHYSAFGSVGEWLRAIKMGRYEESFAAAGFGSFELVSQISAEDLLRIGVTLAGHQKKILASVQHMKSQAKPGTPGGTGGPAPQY

U-87 MG [2] = assay: (§1) Induction of apoptosis in human U87 cells assessed as late apoptotic cells at 20 uM incubated for 48 hrs in presence of (2S,4R)-1-((S)-2-(5-azidopentanamido)-3,3-dimethylbutanoyl)-4-hydroxy-N-(4-(4-methylthiazol-5-yl)benzyl)pyrrolidine-2-carboxamide by Annexin V-FLTC/PI staining based flow cytometry (reference value: 3.71 %); format: functional, U-87MG ATCC
[3] = biological target: Vascular endothelial growth factor receptor 2 (Homo sapiens) (UniProt P35968); assay: Induction of VEGFR2 degradation in human U87 cells upto 10 uM incubated for 48 hrs by Western blot analysis; format: cell-based
U-87 MG [4] = assay: as §1, with “early” for “late”, “8.95” for “3.71”; format: functional, U-87MG ATCC
U-87 MG [5] = assay: as §1, with “early” for “late”, “1” for “20”, “8.95” for “3.71”; format: functional, U-87MG ATCC
U-87 MG [6] = assay: as §1, with “10” for “20”; format: functional, U-87MG ATCC
[7] = biological target: T1, Ephrin type-B receptor 4 (Homo sapiens); assay: Induction of EphB4 degradation in human U87 cells at 2 uM incubated for 48 hrs in presence of (2S,4R)-1-((S)-2-(5-azidopentanamido)-3,3-dimethylbutanoyl)-4-hydroxy-N-(4-(4-methylthiazol-5-yl)benzyl)pyrrolidine-2-carboxamide by Western blot analysis; format: cell-based
U-87 MG [8] = assay: as §1, with “early” for “late”, “5” for “20”, “8.95” for “3.71”; format: functional, U-87MG ATCC
U-87 MG [9] = assay: as §1, with “early” for “late”, “10” for “20”, “8.95” for “3.71”; format: functional, U-87MG ATCC
U-87 MG [10] = assay: as §1, with “viable” for “late apoptotic”, “1” for “20”, “86.74” for “3.71”; format: functional, U-87MG ATCC; settings: read-out: Activity
[11] = biological target: Platelet-derived growth factor receptor beta (Homo sapiens) (UniProt P09619); assay: Induction of PDGFR-beta degradation in human U87 cells at 10 uM incubated for 48 hrs in presence of 4-(4-(3-(4-chloro-3-(trifluoromethyl)phenyl)ureido)phenoxy)-N-(prop-2-yn-1-yl)picolinamide by Western blot analysis; format: cell-based
A549 = assay: Antiproliferative activity against human A549 cells incubated for 48 hrs in presence of 4-(4-(3-(4-chloro-3-(trifluoromethyl)phenyl)ureido)phenoxy)-N-(prop-2-yn-1-yl)picolinamide by MTT assay; format: functional, cell-based; settings: A549, 48 h
U-87 MG [12] = assay: Induction of apoptosis in human U87 cells assessed as early apoptotic cells at 10 uM incubated for 48 hrs in presence of 4-(4-(3-(4-chloro-3-(trifluoromethyl)phenyl)ureido)phenoxy)-N-(prop-2-yn-1-yl)picolinamide by Annexin V-FLTC/PI staining based flow cytometry (reference value: 8.95 %); format: functional, U-87MG ATCC
U-87 MG [13] = assay: Antiproliferative activity against human U87 cells incubated for 48 hrs in presence of 4-(4-(3-(4-chloro-3-(trifluoromethyl)phenyl)ureido)phenoxy)-N-(prop-2-yn-1-yl)picolinamide by MTT assay; format: functional, cell-based, U-87MG ATCC
[14] = biological target: Vascular endothelial growth factor receptor 2 (Homo sapiens) (UniProt P35968); assay: Induction of VEGFR2 degradation in human U87 cells at 10 uM incubated for 48 hrs by Western blot analysis; format: cell-based
U-87 MG [15] = assay: Induction of apoptosis in human U87 cells assessed as necrotic cells at 0.1 uM incubated for 48 hrs in presence of 4-(4-(3-(4-chloro-3-(trifluoromethyl)phenyl)ureido)phenoxy)-N-(prop-2-yn-1-yl)picolinamide by Annexin V-FLTC/PI staining based flow cytometry (reference value: 0.60 %); format: functional, U-87MG ATCC
[16] = biological target: Vascular endothelial growth factor receptor 2 (Homo sapiens) (UniProt P35968); assay: Induction of VEGFR2 degradation in human U87 cells at 10 uM incubated for 48 hrs in presence of 4-(4-(3-(4-chloro-3-(trifluoromethyl)phenyl)ureido)phenoxy)-N-(prop-2-yn-1-yl)picolinamide by Western blot analysis; format: cell-based
[17] = biological target: T1, Ephrin type-B receptor 4 (Homo sapiens); assay: Induction of EphB4 degradation in human U87 cells at 10 uM incubated for 48 hrs in presence of 4-(4-(3-(4-chloro-3-(trifluoromethyl)phenyl)ureido)phenoxy)-N-(prop-2-yn-1-yl)picolinamide by Western blot analysis; format: cell-based
[18] = Stability of compound in PBS by HPLC analysis; format: physicochemical; settings: buffer
[19] = biological target: Serine/threonine-protein kinase B-raf (Homo sapiens) (UniProt P15056); assay: Induction of BRAF degradation in human U87 cells at 10 uM incubated for 48 hrs in presence of 4-(4-(3-(4-chloro-3-(trifluoromethyl)phenyl)ureido)phenoxy)-N-(prop-2-yn-1-yl)picolinamide by Western blot analysis; format: cell-based
Chain of Serine/threonine-protein kinase B-raf (Homo sapiens) (P15056 whole entry): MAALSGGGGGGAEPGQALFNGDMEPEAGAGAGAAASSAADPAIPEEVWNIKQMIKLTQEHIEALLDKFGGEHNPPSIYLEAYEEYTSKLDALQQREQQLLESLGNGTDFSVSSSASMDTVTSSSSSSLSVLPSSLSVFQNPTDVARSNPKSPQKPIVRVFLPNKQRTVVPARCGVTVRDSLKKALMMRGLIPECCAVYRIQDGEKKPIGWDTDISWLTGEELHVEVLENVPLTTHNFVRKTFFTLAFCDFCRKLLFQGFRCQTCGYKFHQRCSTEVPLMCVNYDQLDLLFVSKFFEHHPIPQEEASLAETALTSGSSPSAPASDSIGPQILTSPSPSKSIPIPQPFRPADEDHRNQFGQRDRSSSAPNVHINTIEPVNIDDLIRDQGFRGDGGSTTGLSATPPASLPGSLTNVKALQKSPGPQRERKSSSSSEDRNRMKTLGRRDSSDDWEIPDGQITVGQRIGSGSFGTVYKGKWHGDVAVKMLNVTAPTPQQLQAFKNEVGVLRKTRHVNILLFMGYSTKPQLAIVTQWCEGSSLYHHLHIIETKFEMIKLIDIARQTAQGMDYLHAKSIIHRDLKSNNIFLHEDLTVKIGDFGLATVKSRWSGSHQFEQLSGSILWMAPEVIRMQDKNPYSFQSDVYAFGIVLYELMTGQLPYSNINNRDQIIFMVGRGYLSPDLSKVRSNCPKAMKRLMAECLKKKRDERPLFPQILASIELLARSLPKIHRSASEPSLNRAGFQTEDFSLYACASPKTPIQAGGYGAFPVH

Chain of Vascular endothelial growth factor receptor 2 (Homo sapiens) (P35968 whole entry): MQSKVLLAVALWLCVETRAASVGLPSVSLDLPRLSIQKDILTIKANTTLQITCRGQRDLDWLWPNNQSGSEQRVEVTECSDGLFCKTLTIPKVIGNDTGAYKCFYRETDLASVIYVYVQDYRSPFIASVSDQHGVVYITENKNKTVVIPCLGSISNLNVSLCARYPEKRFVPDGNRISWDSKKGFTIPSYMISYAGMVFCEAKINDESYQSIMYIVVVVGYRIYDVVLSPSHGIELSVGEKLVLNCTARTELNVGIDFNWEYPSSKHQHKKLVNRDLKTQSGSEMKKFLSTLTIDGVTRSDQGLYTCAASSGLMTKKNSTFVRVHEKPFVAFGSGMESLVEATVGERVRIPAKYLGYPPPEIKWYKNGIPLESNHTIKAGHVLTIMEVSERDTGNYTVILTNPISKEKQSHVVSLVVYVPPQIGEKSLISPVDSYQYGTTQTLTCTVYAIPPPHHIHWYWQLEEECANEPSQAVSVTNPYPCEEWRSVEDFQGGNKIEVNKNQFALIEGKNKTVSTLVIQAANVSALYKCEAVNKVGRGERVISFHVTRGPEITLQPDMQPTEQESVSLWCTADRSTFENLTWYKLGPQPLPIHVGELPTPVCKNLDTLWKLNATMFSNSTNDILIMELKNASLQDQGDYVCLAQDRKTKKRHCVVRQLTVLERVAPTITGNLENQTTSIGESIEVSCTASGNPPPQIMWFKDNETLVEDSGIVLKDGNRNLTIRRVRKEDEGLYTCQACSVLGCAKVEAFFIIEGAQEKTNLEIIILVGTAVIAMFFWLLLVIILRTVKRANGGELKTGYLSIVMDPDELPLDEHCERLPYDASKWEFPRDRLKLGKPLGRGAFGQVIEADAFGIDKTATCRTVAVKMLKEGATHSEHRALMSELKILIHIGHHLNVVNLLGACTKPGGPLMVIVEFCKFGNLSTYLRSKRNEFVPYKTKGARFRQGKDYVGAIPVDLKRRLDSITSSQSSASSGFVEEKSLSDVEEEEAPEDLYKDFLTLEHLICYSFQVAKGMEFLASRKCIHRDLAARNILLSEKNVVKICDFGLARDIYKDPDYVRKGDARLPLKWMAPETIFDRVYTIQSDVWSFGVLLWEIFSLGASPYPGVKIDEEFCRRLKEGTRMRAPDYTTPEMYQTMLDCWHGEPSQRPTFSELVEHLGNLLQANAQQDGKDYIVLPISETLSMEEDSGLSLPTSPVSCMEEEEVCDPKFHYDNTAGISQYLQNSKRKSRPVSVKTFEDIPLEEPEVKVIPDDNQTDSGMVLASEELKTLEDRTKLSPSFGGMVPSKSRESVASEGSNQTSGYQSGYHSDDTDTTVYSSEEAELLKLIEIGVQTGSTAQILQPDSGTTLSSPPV
Chain of Platelet-derived growth factor receptor beta (Homo sapiens) (P09619 whole entry): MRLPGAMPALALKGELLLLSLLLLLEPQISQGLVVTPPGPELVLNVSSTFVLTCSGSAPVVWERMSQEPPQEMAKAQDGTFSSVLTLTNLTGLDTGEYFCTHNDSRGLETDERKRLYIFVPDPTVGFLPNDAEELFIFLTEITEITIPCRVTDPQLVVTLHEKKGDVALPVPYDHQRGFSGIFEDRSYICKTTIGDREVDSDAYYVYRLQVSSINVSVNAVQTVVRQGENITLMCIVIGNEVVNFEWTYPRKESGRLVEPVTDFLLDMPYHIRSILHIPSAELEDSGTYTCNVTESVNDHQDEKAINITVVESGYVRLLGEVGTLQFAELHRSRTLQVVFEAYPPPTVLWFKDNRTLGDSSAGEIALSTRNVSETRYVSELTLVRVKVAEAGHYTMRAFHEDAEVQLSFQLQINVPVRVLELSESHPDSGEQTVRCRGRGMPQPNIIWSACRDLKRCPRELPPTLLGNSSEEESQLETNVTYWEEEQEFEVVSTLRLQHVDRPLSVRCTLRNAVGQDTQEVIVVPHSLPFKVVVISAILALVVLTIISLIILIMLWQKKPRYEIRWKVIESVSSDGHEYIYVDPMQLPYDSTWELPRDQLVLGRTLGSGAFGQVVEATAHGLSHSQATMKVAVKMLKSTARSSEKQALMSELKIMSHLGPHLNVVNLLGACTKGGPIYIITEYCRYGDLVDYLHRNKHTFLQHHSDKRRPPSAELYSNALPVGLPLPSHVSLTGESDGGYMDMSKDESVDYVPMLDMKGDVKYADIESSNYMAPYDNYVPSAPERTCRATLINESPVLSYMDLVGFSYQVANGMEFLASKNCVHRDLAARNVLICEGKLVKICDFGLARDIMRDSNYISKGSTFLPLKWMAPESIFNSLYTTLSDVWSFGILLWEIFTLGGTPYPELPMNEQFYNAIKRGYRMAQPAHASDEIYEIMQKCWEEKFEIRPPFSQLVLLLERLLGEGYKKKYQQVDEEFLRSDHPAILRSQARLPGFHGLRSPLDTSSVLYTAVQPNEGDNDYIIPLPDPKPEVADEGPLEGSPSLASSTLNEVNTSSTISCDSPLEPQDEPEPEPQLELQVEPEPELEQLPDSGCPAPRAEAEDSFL

Row | SMILES | Activity [1] | Activity (U-87 MG [2]) | Activity [3] | Activity (U-87 MG [4]) | Activity (U-87 MG [5]) | Activity (U-87 MG [6]) | Activity [7] | Activity (U-87 MG [8]) | Activity (U-87 MG [9]) | viability at 1 µM (U-87 MG [10]) | Activity [11] | IC50 (A549) | Activity (U-87 MG [12]) | IC50 (U-87 MG [13]) | Activity [14] | Activity (U-87 MG [15]) | Activity [16] | Activity [17] | Stability [18] | Activity [19]
1 | C#CCNC(=O)c1cc(Oc2ccc(NC(=O)Nc3ccc(Cl)c(C(F)(F)F)c3)cc2)ccn1 | inactive | 79.04% | inactive | 4.73% | 11.69% | 72.58% | Active | 0.05% | 0.08% | 81.6% | – | – | – | – | – | – | – | – | – | –
2 | [N-]=[N+]=NCCCC(=O)Nc1cccc2c1C(=O)N(C1CCC(=O)NC1=O)C2=O (stereo not given) | – | – | – | – | – | – | – | – | – | – | Active | 1.16 µM | 0.08% | 5.68 µM | Active | 1.02% | Active | Active | Unstable | Active
